From PubChem BioAssay AID2060614 (Molecular Pharmacology Branch, DTP, NCI, 2025)
Several values for one entry are separate records, joined by “and”; a condition that tells them apart may be missing. Equal entries are not always repeated.

Tested on: 598228-144-R-J1-PDC complex spheroids, viability
Test: Anticancer human tumor 598228-144-R-J1-PDC patient-derived serous endometrial adenocarcinoma cell line growth inhibition [CLK]
Conditions: for viability, T/C: stronger effect = lower value
From the text: A high-throughput screen of multi-cell type tumor spheroids was designed to identify active combinations of […] and targeted small molecules. Complex spheroids include a stromal component modeled by human endothelial cells (HUVEC) and fibroblasts modeled by human mesenchymal stem cells (MSCs). The concentration ranges selected for each drug and investigational agent were based upon clinically achievable concentrations if the clinical Cmax of the agent was known.
Compounds. The drugs and investigational agents: cirtuvivint (SM08502; NSC835563), CC-671 (NSC850746), vemurafenib (NSC761431), tapotoclax (NSC804041), sotorasib (NSC818433), adagrasib (NSC831453), MRTX-1133 (NSC836407), BAY2416964 (NSC825713), copanlisib (NSC816437), inavolisib (NSC800729), abemaciclib (NSC768073), osimertinib (NSC779217), entinostat (NSC756642), eltanexor (KPT-8602, NSC794443), venetoclax (NSC766270), ceralasertib (NSC777638), bortezomib (NSC756655), olaparib (NSC753686), talazoparib (NSC767125), alisertib (NSC759677), peposertib (NSC802822), gemcitabine (NSC613327), 5-fluorouracil (NSC19893), SN-38 (NSC673596), oxaliplatin (NSC266046), paclitaxel (NSC125973), and doxorubicin (NSC123127), were obtained from the National Cancer Institute (NCI) Developmental Therapeutics Program Chemical Repository. The FDA-approved anticancer drug set is available from the Developmental Therapeutics Program at https://dtp.cancer.gov/organization/dscb/obtaining/available plates.htm. […] The stock solutions were prepared in dimethyl sulfoxide (DMSO, Sigma-Aldrich, St. Louis, MO, cat. D2650), except for the platinum complexes which were prepared in saline (Quality Biological, Gaithersburg, MD, cat. 114-055-101), at 800-fold the tested concentration and stored at -70 degrees C prior to their use. All drugs and investigational agents were tested over a range starting from a high concentration at or near the clinical Cmax and decreasing in half-log increments. If the clinical Cmax for an agent had not been determined, the highest concentration tested was 10 microM.
Cell Culture. All cells were maintained in an incubator at 37 degrees C and 5% CO2 with 95% humidity. The PDC lines were cultured according to standard operating procedures established by the NCI PDMR. Briefly, all PDCs were thawed and cultured in Matrigel-coated flasks prepared with a working solution of 1X Ham's F-12 nutrient mix, without supplementation (Invitrogen, Waltham, MA, cat. 11765054), 100 U/mL penicillin-streptomycin (Invitrogen, cat. 15140122), and 2.5% Matrigel (Corning Inc., Corning, NY, cat. 354248) for the first three passages. The 947758-054-R-J2-PDC line was cultured in 6B/Colon 1A media, which includes advanced DMEM/F-12 (Thermo Fisher Scientific, cat. 12634028), 10 mM HEPES (Thermo Fisher Scientific, cat. 15630080), 1X GlutaMAX supplement (Thermo Fisher Scientific, cat. 35050061), 0.1 mg/mL primocin (InvivoGen, cat. ant-pm-2), 10% defined fetal bovine serum, heat inactivated (HyClone Laboratories Inc., cat. SH30070.03HI), 1.25 mM N-Acetyl-L-cysteine (Sigma-Aldrich, cat. A9165), 10 mM nicotinamide (Sigma-Aldrich, cat. N0636), 1X B-27 supplement (Thermo Fisher Scientific, cat. 17504044), 1X N-2 supplement (Thermo Fisher Scientific, cat. 17502048), and 10 microM Y-27632 dihydrochloride (Tocris Bioscience, cat. 1254). The 876862-298-R-J1-PDC was cultured in 6E media, which includes all 6B/Colon 1A media components plus 50% L-WRN conditioned media (ATCC, cat. CRL-3276), 50 ng/mL recombinant human EGF recombinant protein (hEGF; Thermo Fisher Scientific, cat. PHG0311), 10 ng/mL recombinant human fibroblast growth factor 10 (hGFG-10; PeproTech, cat. 100-26), 1 ng/mL recombinant human fibroblast growth factor 2 (hFGF-2; PeproTech, cat. 100-18B), and 1 µM prostaglandin E2 (PGE2; Tocris, cat. 2296). The 227483-062-R1-J1-PDC line was cultured in Panc media, containing all 6E components except hFGF-2, with the addition of 500 nM SB-431542 (Selleckchem, cat. S1067) and 10 nM gastrin (Tocris, cat. 3006). […]

[1] = curve of first compound, second compound 0.0316 µM
[2] = curve of first compound, second compound 0.1 µM
[3] = curve of first compound, second compound 0.316 µM
[4] = curve of first compound, second compound 1 µM
[5] = curve of first compound, second compound 3.16 µM
[6] = curve of first compound, second compound 10 µM
[7] = second compound 0.0316 µM, first compound 0.0316 µM
[8] = second compound 0.0316 µM, first compound 0.1 µM
[9] = second compound 0.0316 µM, first compound 0.316 µM
[10] = second compound 0.0316 µM, first compound 1 µM
[11] = second compound 0.0316 µM, first compound 3.16 µM
[12] = second compound 0.0316 µM, first compound 10 µM
[13] = second compound 0.1 µM, first compound 0.0316 µM
[14] = second compound 0.1 µM, first compound 0.1 µM
[15] = second compound 0.1 µM, first compound 0.316 µM
[16] = second compound 0.1 µM, first compound 1 µM
[17] = second compound 0.1 µM, first compound 3.16 µM
[18] = second compound 0.1 µM, first compound 10 µM
[19] = second compound 0.316 µM, first compound 0.0316 µM
[20] = second compound 0.316 µM, first compound 0.1 µM
[21] = second compound 0.316 µM, first compound 0.316 µM
[22] = second compound 0.316 µM, first compound 1 µM
[23] = second compound 0.316 µM, first compound 3.16 µM
[24] = second compound 0.316 µM, first compound 10 µM
[25] = second compound 1 µM, first compound 0.0316 µM
[26] = second compound 1 µM, first compound 0.1 µM
[27] = second compound 1 µM, first compound 0.316 µM
[28] = second compound 1 µM, first compound 1 µM
[29] = second compound 1 µM, first compound 3.16 µM
[30] = second compound 1 µM, first compound 10 µM
[31] = second compound 3.16 µM, first compound 0.0316 µM
[32] = second compound 3.16 µM, first compound 0.1 µM
[33] = second compound 3.16 µM, first compound 0.316 µM
[34] = second compound 3.16 µM, first compound 1 µM
[35] = second compound 3.16 µM, first compound 3.16 µM
[36] = second compound 3.16 µM, first compound 10 µM
[37] = second compound 10 µM, first compound 0.0316 µM
[38] = second compound 10 µM, first compound 0.1 µM
[39] = second compound 10 µM, first compound 0.316 µM
[40] = second compound 10 µM, first compound 1 µM
[41] = second compound 10 µM, first compound 3.16 µM
[42] = second compound 10 µM, first compound 10 µM
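Further: spheroids exposed to compounds for seven days before readout.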
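Wherever viability, T/C is given: 100% = DMSO vehicle control wells.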

CN1CCN(c2cc(C(=O)Nc3cc4cc(-c5cnn(C)c5)ccc4cn3)ccn2)CC1
viability, T/C (compound 0.316 µM): 17.4% [middle of 11 runs]
viability, T/C (compound 1 µM): 3.28% [middle of 12 runs]
viability, T/C (compound 3.16 µM): 2.39% [middle of 11 runs]
viability, T/C (compound 10 µM): 1% [middle of 11 runs]
IC50 (compound alone, run of 09/18/2023): 216 nM [middle of 10 runs]

COc1ccc([C@@H](O)c2cc(-c3ncnc4cc(N5CCOCC5)ccc34)c(F)cc2Cl)nn1
viability, T/C (compound 0.0316 µM): 96.2% and 103%
viability, T/C (compound 0.1 µM): 93.5% and 88.3%
viability, T/C (compound 0.316 µM): 83.5% and 94.8%
viability, T/C (compound 1 µM): 63.7% and 76.9%
viability, T/C (compound 3.16 µM): 54.9% and 55.7%
viability, T/C (compound 10 µM): 34.8% and 31.7%
IC50 (curve of compound): 3550 nM and 4190 nM

COc1cccc2c1C(=O)c1c(O)c3c(c(O)c1C2=O)CC(O)(C(=O)CO)CC3OC1CC(N)C(O)C(C)O1 (stereo not given)
viability, T/C (compound 0.0316 µM): 75.6% and 69%
viability, T/C (compound 0.1 µM): 76.5% and 74%
viability, T/C (compound 0.316 µM): 43.8% and 43.9%
viability, T/C (compound 1 µM): 14% and 12.3%
viability, T/C (compound 3.16 µM): 0.38% and 0.72%
viability, T/C (compound 10 µM): 0.37% and 0.77%
IC50 (curve of compound): 266 nM and 257 nM

C=CC(=O)N1CCN(c2nc(=O)n(-c3c(C)ccnc3C(C)C)c3nc(-c4c(O)cccc4F)c(F)cc23)C(C)C1 (stereo not given) + CN1CCN(c2cc(C(=O)Nc3cc4cc(-c5cnn(C)c5)ccc4cn3)ccn2)CC1
IC50 [1]: > 10000 nM
IC50 [2]: > 10000 nM
IC50 [3]: < 31.6 nM
IC50 [4]: < 31.6 nM
IC50 [5]: < 31.6 nM
IC50 [6]: < 31.6 nM
viability, T/C [7]: 128%
viability, T/C [8]: 130%
viability, T/C [9]: 121%
viability, T/C [10]: 138%
viability, T/C [11]: 159%
viability, T/C [12]: 128%
viability, T/C [13]: 128%
viability, T/C [14]: 122%
viability, T/C [15]: 132%
viability, T/C [16]: 160%
viability, T/C [17]: 162%
viability, T/C [18]: 121%
viability, T/C [19]: 20.6%
viability, T/C [20]: 21.9%
viability, T/C [21]: 20.1%
viability, T/C [22]: 24.2%
viability, T/C [23]: 25.9%
viability, T/C [24]: 18.4%
viability, T/C [25]: 1.67%
viability, T/C [26]: 1.68%
viability, T/C [27]: 2.05%
viability, T/C [28]: 2.47%
viability, T/C [29]: 2.38%
viability, T/C [30]: 1.47%
viability, T/C [31]: 1.63%
viability, T/C [32]: 3.15%
viability, T/C [33]: 2.36%
viability, T/C [34]: 2.16%
viability, T/C [35]: 3.18%
viability, T/C [36]: 4.16%
viability, T/C [37]: 0.96%
viability, T/C [38]: 1.09%
viability, T/C [39]: 2.11%
viability, T/C [40]: 1.48%
viability, T/C [41]: 4.19%
viability, T/C [42]: 1.94%

CCCS(=O)(=O)Nc1ccc(F)c(C(=O)c2c[nH]c3ncc(-c4ccc(Cl)cc4)cc23)c1F + CN1CCN(c2cc(C(=O)Nc3cc4cc(-c5cnn(C)c5)ccc4cn3)ccn2)CC1
IC50 [1]: > 10000 nM
IC50 [2]: > 10000 nM
IC50 [3]: < 31.6 nM
IC50 [4]: < 31.6 nM
IC50 [5]: < 31.6 nM
IC50 [6]: < 31.6 nM
viability, T/C [7]: 114%
viability, T/C [8]: 136%
viability, T/C [9]: 119%
viability, T/C [10]: 145%
viability, T/C [11]: 115%
viability, T/C [12]: 71%
viability, T/C [13]: 132%
viability, T/C [14]: 144%
viability, T/C [15]: 111%
viability, T/C [16]: 131%
viability, T/C [17]: 112%
viability, T/C [18]: 72.5%
viability, T/C [19]: 20.5%
viability, T/C [20]: 23.8%
viability, T/C [21]: 19.9%
viability, T/C [22]: 15.7%
viability, T/C [23]: 17.3%
viability, T/C [24]: 15.5%
viability, T/C [25]: 1.62%
viability, T/C [26]: 1.8%
viability, T/C [27]: 2.03%
viability, T/C [28]: 1.5%
viability, T/C [29]: 2.94%
viability, T/C [30]: 4.26%
viability, T/C [31]: 2.08%
viability, T/C [32]: 6.53%
viability, T/C [33]: 1.71%
viability, T/C [34]: 2.24%
viability, T/C [35]: 5.08%
viability, T/C [36]: 7.6%
viability, T/C [37]: 1.08%
viability, T/C [38]: 0.79%
viability, T/C [39]: 1.22%
viability, T/C [40]: 1.42%
viability, T/C [41]: 3.13%
viability, T/C [42]: 6.03%

COC1C=CCC(C)C(C)S(=O)(=O)NC(=O)c2ccc3c(c2)N(CC2CCC21)CC1(CCCc2cc(Cl)ccc21)CO3 (stereo not given) + CN1CCN(c2cc(C(=O)Nc3cc4cc(-c5cnn(C)c5)ccc4cn3)ccn2)CC1
IC50 [1]: 4710 nM
IC50 [2]: 5350 nM
IC50 [3]: < 31.6 nM
IC50 [4]: < 31.6 nM
IC50 [5]: < 31.6 nM
IC50 [6]: < 31.6 nM
viability, T/C [7]: 128%
viability, T/C [8]: 107%
viability, T/C [9]: 85.1%
viability, T/C [10]: 75%
viability, T/C [11]: 69.2%
viability, T/C [12]: 29.5%
viability, T/C [13]: 122%
viability, T/C [14]: 111%
viability, T/C [15]: 86%
viability, T/C [16]: 76.9%
viability, T/C [17]: 65.5%
viability, T/C [18]: 36.4%
viability, T/C [19]: 15.7%
viability, T/C [20]: 18.8%
viability, T/C [21]: 16.8%
viability, T/C [22]: 16.6%
viability, T/C [23]: 20.5%
viability, T/C [24]: 18.9%
viability, T/C [25]: 1.74%
viability, T/C [26]: 1.81%
viability, T/C [27]: 3.02%
viability, T/C [28]: 1.14%
viability, T/C [29]: 1.71%
viability, T/C [30]: 4.93%
viability, T/C [31]: 1.85%
viability, T/C [32]: 3.92%
viability, T/C [33]: 1.47%
viability, T/C [34]: 1.24%
viability, T/C [35]: 2.51%
viability, T/C [36]: 3.08%
viability, T/C [37]: 0.94%
viability, T/C [38]: 0.82%
viability, T/C [39]: 0.72%
viability, T/C [40]: 0.85%
viability, T/C [41]: 2.37%
viability, T/C [42]: 3.73%
